From patent publication US20100028892A1, “YEAST BASED EXPRESSION OF PROTEASES AND METHODS OF USE” (Burnham Institute for Medical Research, priority 2008, published 2010)

What was measured:
Caspase-8 = Caspase-8 (Homo sapiens, UniProt Q14790); experiment: in vitro biochemical assay with purified recombinant Caspase-8 and fluorigenic substrate Ac-IETD-AFC; settings: purified recombinant Caspase-8, Ac-IETD-AFC, various concentrations of compound
Procedure: The results of a HTS of a yeast-based NALP1 inflammasome assay are shown in FIG. 12 consisting of FIGS. 12A-G (A) NALP1 yeast screen controls. Yeast cells containing ASC/Nalp1ΔLRR/Caspase1 were plated at 1.88×10^5 cells/well in a 384 well plate in media containing 1% galactose/2% raffinose, with (squares) or without (diamonds) 400 μg/ml X-gal substrate. The plates were incubated for 72 hrs at 30° C. and the plates were read at OD620. (B) Yeast Screen of LOPAC compound library plate 4 for NALP1. Yeast cells containing ASC/NALP1/Caspase1 were plated at 1.88×10^5 cells/well in a 384 well plate in media containing 1% galactose, 2% raffinose, with or without 400 μg/ml X-gal. The plates were incubated for 72 hrs at 30° C. and the plates were read at OD620. The compounds were screened at 100 μM and “hits” were defined by >50% reduction (as shown). (C) Validation of HTS assay for Fas-FADD-Caspase-8 system. Yeast cells containing Fas/FADD/Caspase-8 were cultured in 384 well plates as above with (blue squares) or without (purple diamonds) Xgal substrate, the plates were incubated for 72 hrs at 30° C. and analyzed as above. (D) Example of library screening plate for Fas-FADD-Caspase-8. […] Plates were incubated for 48 hrs at 30° C. and OD620 values recorded. […] Data represent relative fluorescence units (RFU) assessed in the absence or presence of various concentrations of compound (CID-2531).

Fas/FADD/Caspase-8 = target: T1, Fas/FADD/Caspase-8 (Homo sapiens, UniProt P25445+Q13158+Q14790); experiment: yeast Fas/FADD/Caspase-8 HTS assay with counter-screen strains (lacZ, Asc/Caspase-1, empty vector); type: cell-based; settings: 384 well, OD620, 2-4 days at 30° C., versus lacZ, Asc/Caspase-1 and empty vector strains
T1 construct: a small amount of each full-length Caspase construct was expressed with a large amount of adaptor protein FADD; HA (C); expressed in transfected cells; host or cells: Saccharomyces cerevisiae EGY48
T1 sequence (Q14790 whole entry): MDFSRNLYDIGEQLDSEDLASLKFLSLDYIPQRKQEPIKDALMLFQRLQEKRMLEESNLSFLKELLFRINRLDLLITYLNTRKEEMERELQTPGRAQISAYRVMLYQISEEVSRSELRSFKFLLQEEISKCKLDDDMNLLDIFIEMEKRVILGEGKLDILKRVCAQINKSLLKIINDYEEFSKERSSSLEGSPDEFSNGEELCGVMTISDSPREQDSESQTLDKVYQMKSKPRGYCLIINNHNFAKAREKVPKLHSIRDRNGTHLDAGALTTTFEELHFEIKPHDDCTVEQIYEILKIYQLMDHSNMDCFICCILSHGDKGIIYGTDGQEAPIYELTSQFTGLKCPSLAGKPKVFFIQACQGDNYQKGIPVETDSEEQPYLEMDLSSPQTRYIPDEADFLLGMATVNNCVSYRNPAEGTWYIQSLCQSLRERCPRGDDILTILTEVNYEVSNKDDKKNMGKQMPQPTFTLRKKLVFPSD
T1 sequence (Q13158 whole entry): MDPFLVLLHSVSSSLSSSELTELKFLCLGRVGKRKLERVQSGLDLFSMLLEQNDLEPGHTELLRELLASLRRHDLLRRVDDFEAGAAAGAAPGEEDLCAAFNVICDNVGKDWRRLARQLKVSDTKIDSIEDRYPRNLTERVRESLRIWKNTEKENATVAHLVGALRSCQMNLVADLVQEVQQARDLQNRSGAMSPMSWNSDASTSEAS
T1 sequence (P25445 26-335): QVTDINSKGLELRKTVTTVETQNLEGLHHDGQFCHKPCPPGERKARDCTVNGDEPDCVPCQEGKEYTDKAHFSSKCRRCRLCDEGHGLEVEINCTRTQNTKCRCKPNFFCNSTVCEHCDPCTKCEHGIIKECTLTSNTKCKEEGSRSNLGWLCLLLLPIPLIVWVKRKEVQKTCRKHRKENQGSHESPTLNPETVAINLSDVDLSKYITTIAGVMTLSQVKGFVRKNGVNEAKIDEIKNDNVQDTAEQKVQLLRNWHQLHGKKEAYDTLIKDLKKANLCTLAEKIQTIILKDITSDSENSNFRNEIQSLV
Procedure: The results of a HTS of a yeast-based NALP1 inflammasome assay are shown in FIG. 12 consisting of FIGS. 12A-G (A) NALP1 yeast screen controls. Yeast cells containing ASC/Nalp1ΔLRR/Caspase1 were plated at 1.88×10^5 cells/well in a 384 well plate in media containing 1% galactose/2% raffinose, with (squares) or without (diamonds) 400 μg/ml X-gal substrate. The plates were incubated for 72 hrs at 30° C. and the plates were read at OD620. (B) Yeast Screen of LOPAC compound library plate 4 for NALP1. Yeast cells containing ASC/NALP1/Caspase1 were plated at 1.88×10^5 cells/well in a 384 well plate in media containing 1% galactose, 2% raffinose, with or without 400 μg/ml X-gal. The plates were incubated for 72 hrs at 30° C. and the plates were read at OD620. The compounds were screened at 100 μM and “hits” were defined by >50% reduction (as shown). (C) Validation of HTS assay for Fas-FADD-Caspase-8 system. Yeast cells containing Fas/FADD/Caspase-8 were cultured in 384 well plates as above with (blue squares) or without (purple diamonds) Xgal substrate, the plates were incubated for 72 hrs at 30° C. and analyzed as above. (D) Example of library screening plate for Fas-FADD-Caspase-8. […] Plates were incubated for 48 hrs at 30° C. and OD620 values recorded. […] Data represent relative fluorescence units (RFU) assessed in the absence or presence of various concentrations of compound (CID-2531). […]

Caspases = experiment: validation of 384 well yeast-based Caspase-dependent lacZ reporter gene assays with pharmacological inhibitors; type: cell-based, human; settings: 384 well yeast-based Caspase-dependent reporter gene assay
From the text: When converting the yeast-based protease reporter system to HTS assay, conditions from agar plates to liquid medium in microtiter wells must be revised. This revision comprises, utilizing the measured β-galactosidase produced by yeast carrying the Caspase-cleavable reporter proteins, and assaying the colorimetric product (OD620nm) derived from X-gal substrate in 384 well plates, as a measure of the lacZ reporter gene activity. We compared β-galactosidase activity produced in the presence or absence of the broad-spectrum caspase inhibitory compound, zVAD-fmk ([…]-Valinyl-Alaninyl-Aspartyl-fluoromethylketone). Among the variables that were initially interrogated were initial seeding cell density, time of culture, concentration of X-gal substrate, and supporting carbohydrate (raffinose vs mannose). Note that it was determined that it is not advisible to employ glucose in yeast media because it represses the GAL1 promoter used in some plasmids. An example of data obtained using the plural-component system of Fas/FADD/Caspase-8 is presented. All variables tested altered the signal:noise ratio of the assay. […] For the two-component system of ASC/Caspase-1 and for the plural-component system of NALP1ΔLRR/ASC/Caspase-1, the same conditions were optimal, among those tested (not shown). For the Fas/Fadd/Caspase 8, the caspase and adaptor protein (Fadd) were expressed at relatively small amounts (a weak promoter and low copy number plasmid are used) and the upstream activator (Fas) was expressed in a large amount.
The 384 well assay format was further validated, using zVAD-fmk, a peptidyl inhibitor with broad-spectrum activity against animal Caspases. […]
The validation results of a yeast-based Caspase assay using a pharmacological inhibitor of Caspases are shown in FIG. 11 consisting of FIGS. 11A-C (A) Caspase-1, single-component assay. […] For (A-C), relative absorbance at 620 nm was measured (mean ±std dev; n=3-5 independent experiments). […]
Assays were performed in a total volume of […] in triplicate. […] Absorbance at 620 nm was measured 2-3 days after culture at 30° C.

Caspase-8, sequence (Q14790 217-479): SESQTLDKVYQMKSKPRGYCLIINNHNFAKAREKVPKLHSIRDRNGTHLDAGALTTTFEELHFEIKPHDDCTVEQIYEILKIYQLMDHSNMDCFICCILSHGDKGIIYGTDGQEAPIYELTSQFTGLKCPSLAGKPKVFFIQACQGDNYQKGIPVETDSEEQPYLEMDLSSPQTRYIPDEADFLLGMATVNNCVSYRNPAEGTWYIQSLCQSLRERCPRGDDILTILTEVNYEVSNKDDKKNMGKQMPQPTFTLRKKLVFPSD

Compound	selective inhibition of Fas-FADD-Caspase-8 (Fas/FADD/Caspase-8)	further results
Clc1ccc(C(c2ccc(Cl)cc2)n2cc[n+](CC(OCc3ccc(Cl)cc3Cl)c3ccc(Cl)cc3Cl)c2)cc1 (stereo not shown) [CID-2531]	–	inhibition of Caspase-8 (relative fluorescence units) (Caspase-8): evidence of inhibition of Caspase-8
c1ccc2c(c1)[I+]c1ccccc1-2 [CID-3101]	evidence of selective inhibition	–
C[n+]1cc2c3c(ccc2c2ccc4cc5c(cc4c21)OCO5)OCO3 [CID-5154]	evidence of selective inhibition	–
CCCC[C@@H](C=O)NC(=O)[C@H](CC(C)C)NC(=O)OCc1ccccc1 [Calpain inhibitor, calpeptin]	–	effect on β-galactosidase activity / activation of the lacZ reporter gene (Caspases): did not suppress activation of the lacZ reporter gene
